From ChEMBL document CHEMBL4196039, “Pan-NS3 protease inhibitors of hepatitis C virus based on an R3-elongated pyrazinone scaffold” (Eur J Med Chem, 2018)
Non-standard residues stand in square brackets, D forms with d. Residues, ends and D or L forms follow the SMILES beside them. dGla = N[C@H](CC(C(=O)O)C(=O)O)C(=O)O; Cha = N[C@@H](CC1CCCCC1)C(=O)O

How the values were obtained:
NS3 [1] = target: T1, NS3 (Hepatitis C virus, UniProt A3EZJ3); assay: Inhibition of HCV genotype-3a full length NS3 protease preincubated for 10 mins followed by Ac-DED(Edans)EEAbuj-[COO]ASK(Dabcyl)-NH2 addition in presence of co-factor 2K-NS4A by fluorescence assay; set-up: species or system Hepatitis C virus subtype 3a
NS3 [2] = target: T1, NS3; assay: Inhibition of HCV genotype-1a full length NS3 protease preincubated for 10 mins followed by Ac-DED(Edans)EEAbuj-[COO]ASK(Dabcyl)-NH2 addition in presence of co-factor 2K-NS4A by fluorescence assay; set-up: species or system Hepatitis C virus subtype 1a
NS3 [3] = target: NS3 (Hepatitis C virus, UniProt A3EZJ3, R155K); assay: Inhibition of HCV genotype-1a full length NS3 protease R155K mutant preincubated for 10 mins followed by Ac-DED(Edans)EEAbuj-[COO]ASK(Dabcyl)-NH2 addition in presence of co-factor 2K-NS4A by fluorescence assay; set-up: species or system Hepatitis C virus subtype 1a
Hepatitis C virus = assay: Antiviral activity against HCV genotype 1b infected in human HuH7 cells; type: functional, organism-based, Hepacivirus hominis; details: Huh-7
[4] = Cytotoxicity against human HuH7 cell; type: cell-based, Huh-7; details: HuH7 cells
NS3 [5] = target: T1, NS3; assay: Inhibition of HCV genotype-1a NS3 protease; set-up: species or system Hepatitis C virus subtype 1a

Chain of NS3 (Hepatitis C virus, UniProt A3EZJ3, R155K) (A3EZJ3 entry or part of it R155K): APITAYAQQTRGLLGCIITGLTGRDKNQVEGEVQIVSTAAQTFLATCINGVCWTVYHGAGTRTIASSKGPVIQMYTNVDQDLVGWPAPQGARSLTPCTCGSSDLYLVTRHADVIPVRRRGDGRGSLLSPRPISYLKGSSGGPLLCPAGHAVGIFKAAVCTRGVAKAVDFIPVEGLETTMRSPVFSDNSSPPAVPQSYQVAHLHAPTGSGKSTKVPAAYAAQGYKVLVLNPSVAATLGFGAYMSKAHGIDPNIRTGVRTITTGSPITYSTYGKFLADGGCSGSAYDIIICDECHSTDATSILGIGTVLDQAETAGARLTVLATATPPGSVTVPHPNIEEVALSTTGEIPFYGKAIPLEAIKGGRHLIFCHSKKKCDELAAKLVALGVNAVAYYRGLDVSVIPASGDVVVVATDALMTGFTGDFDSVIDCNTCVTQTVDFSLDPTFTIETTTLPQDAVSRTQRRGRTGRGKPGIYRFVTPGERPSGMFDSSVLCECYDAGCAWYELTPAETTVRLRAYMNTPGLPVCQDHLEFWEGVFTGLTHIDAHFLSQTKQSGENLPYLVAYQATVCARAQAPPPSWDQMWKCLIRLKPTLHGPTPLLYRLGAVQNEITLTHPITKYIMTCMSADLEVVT
T1 sequence (A3EZJ3 whole entry): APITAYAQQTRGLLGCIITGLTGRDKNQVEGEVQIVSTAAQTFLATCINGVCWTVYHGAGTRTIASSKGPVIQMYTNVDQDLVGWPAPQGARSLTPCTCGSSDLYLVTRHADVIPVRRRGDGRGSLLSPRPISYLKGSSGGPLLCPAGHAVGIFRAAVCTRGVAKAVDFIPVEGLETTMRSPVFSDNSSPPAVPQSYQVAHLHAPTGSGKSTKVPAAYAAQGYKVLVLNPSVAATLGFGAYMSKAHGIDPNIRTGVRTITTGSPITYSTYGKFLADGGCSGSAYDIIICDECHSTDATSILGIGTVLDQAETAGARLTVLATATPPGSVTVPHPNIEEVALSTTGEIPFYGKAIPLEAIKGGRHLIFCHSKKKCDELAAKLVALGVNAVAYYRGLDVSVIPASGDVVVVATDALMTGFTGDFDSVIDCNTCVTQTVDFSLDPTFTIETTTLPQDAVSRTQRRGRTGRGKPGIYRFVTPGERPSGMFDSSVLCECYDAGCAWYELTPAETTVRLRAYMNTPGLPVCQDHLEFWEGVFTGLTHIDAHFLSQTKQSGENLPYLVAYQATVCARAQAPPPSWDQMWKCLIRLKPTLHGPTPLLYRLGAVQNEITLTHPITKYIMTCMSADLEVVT

| Structure (SMILES) | Ki (NS3 [1]) [nM] | Ki (NS3 [2]) [nM] | also measured |
| --- | --- | --- | --- |
| CC(C)(C)NC(=O)Nc1nc(Cl)c(CCC2CCCCC2)n(CC(=O)NC2(C(=O)NS(=O)(=O)c3ccc(C(F)(F)F)cc3)CC(OCc3ccccc3)C2)c1=O (stereo not given) | 68 | – | – |
| CC(C)(C)NC(=O)Nc1nc(Cl)c(CCC2CCCCC2)n(CC(=O)Nc2ccccc2C(=O)O)c1=O | 70 | – | – |
| CC(C)(C)NC(=O)Nc1nc(Cl)c(Cc2cccc3ccccc23)n(CC(=O)Nc2ccccc2S(=O)(=O)NC(=O)c2ccc(C(F)(F)F)cc2)c1=O | 170 | – | – |
| CC(C)(C)NC(=O)Nc1nc(Cl)c(CCC2CCCCC2)n(CC(=O)Nc2cc(-c3cncnc3)ccc2C(=O)NS(=O)(=O)c2ccc(C(F)(F)F)cc2)c1=O | 87 | – | – |
| O=C(Cn1c(Cc2ccccc2)c(Cl)nc(NNC(=O)c2ccccc2)c1=O)Nc1ccccc1C(=O)NS(=O)(=O)c1ccc(C(F)(F)F)cc1 | – | 1650 | – |
| CC(C)(C)[C@@H](CNS(=O)(=O)c1cccnc1)NC(=O)Nc1nc(Cl)c(Cc2ccccc2)n(CC(=O)Nc2cc(F)ccc2C(=O)NS(=O)(=O)c2ccc(C(F)(F)F)cc2)c1=O | – | 190 | Ki (NS3 [3]): 40 nM |
| CC1(C)CC(=O)N(C[C@@H](NC(=O)Nc2nc(Cl)c(CCC3CCCCC3)n(CC(=O)Nc3cc(F)ccc3C(=O)NS(=O)(=O)c3ccc(C(F)(F)F)cc3)c2=O)C(C)(C)C)C(=O)C1 | 5.4 | 30 | Ki (NS3 [3]): 2 nM; EC50 (Hepatitis C virus): 7100 nM; CC50 [4]: 26000 nM |
| CC(C)(C)N1CCN(c2nc(Cl)c(Cc3ccccc3)n(CC(=O)Nc3ccccc3C(=O)NS(=O)(=O)c3ccc(C(F)(F)F)cc3)c2=O)C1=O | – | 380 | – |
| CC1(C)CC(=O)N(C[C@@H](NC(=O)Nc2nc(Cl)c(Cc3ccccc3)n(CC(=O)Nc3cc(F)ccc3C(=O)NS(=O)(=O)c3ccc(C(F)(F)F)cc3)c2=O)C(C)(C)C)C(=O)C1 | 135 | 160 | Ki (NS3 [3]): 30 nM |
| CC[C@H](C)[C@H](NC(=O)[C@H](CC(C)C)NC(=O)[C@@H](CC(C(=O)O)C(=O)O)NC(=O)[C@H](CC(=O)O)NC(C)=O)C(=O)N[C@@H](CC1CCCCC1)C(=O)N[C@@H](CS)C(=O)O (Ac-D[dGla]LI[Cha]C-OH) | – | 9 | – |
| COc1ccc2c(O[C@@H]3C[C@H]4C(=O)N[C@]5(C(=O)O)C[C@H]5/C=C\CCCCC[C@H](NC(=O)OC5CCCC5)C(=O)N4C3)cc(-c3csc(NC(C)C)n3)nc2c1 [CILUPREVIR] | 20 | – | Ki (NS3 [5]): 0.089 nM; CC50 [4]: > 100 nM |
